The subject of test [1] is HIV-1 92TH009 (subtype A/E, R5). As to the kind of experiment: Inhibition of HIV-1 clinical strain infection of M7 cells, p24 antigen ELISA. The format is cell-based. How it is done: (§1) Inhibition activities of peptides on infection by HIV-1 clinical strains were determined as previously described. For inhibition of HIV-1 92TH009 (subtype A/E, R5) and 92UG024 (subtype D, X4) infection,100 TCID50 of the virus was added to 1 × 10^5/ml M7 cells in RPMI 1640 medium containing 10% FBS in the presence or absence of the test peptide overnight. Then, the culture supernatants were changed to fresh media. On the fourth day post-infection, culture supernatants were collected for detection of p24 antigen by ELISA. The percent inhibition of p24 production was calculated using the computer program Calcusyn.

Test [2] relates to HIV-1 92UG024 (subtype D, X4). The format is cell-based. How it is done:
as §1

Test [3] concerns T2635-resistant strain K154Q. The format is cell-based, HIV-1. The conditions noted are these: triplicate, repeated twice, mean ± SD, read-out: IC50 (nM) against K154Q. The text has this: (§2) Table 2 Inhibitory activities of CP, CP-IDL and T20 against T2635 or T20 resistant strains. | column: IC50 (nM) of / CP; IC50 (nM) of / CP-IDL; IC50 (nM) of / T20
Test [4] deals with T2635-resistant strain Q66R, N126K. The class given is cell-based, HIV-1. The conditions noted are these: triplicate, repeated twice, mean ± SD, read-out: IC50 (nM) against Q66R, N126K.
Text: as §2

The test system of test [5] is T2635-resistant strain N113E. The format is cell-based, HIV-1. The conditions noted are these: triplicate, repeated twice, mean ± SD, read-out: IC50 (nM) against N113E.
Text: as §2

Test [6] deals with T2635-resistant strain N126K. The format is cell-based, HIV-1. The conditions noted are these: triplicate, repeated twice, mean ± SD, read-out: IC50 (nM) against N126K.
Text: as §2

The test system of test [7] is T20-resistant strain N42T, N43K. The class given is cell-based, HIV-1. Particulars: triplicate, repeated twice, mean ± SD, read-out: IC50 (nM) against N42T, N43K.
Text: as §2

Test [8] relates to WT (T20-resistant strain panel). The class given is cell-based, HIV-1. The conditions noted are these: triplicate, repeated twice, mean ± SD, read-out: IC50 (nM) against WT.
Text: as §2

Test [9] concerns WT (T2635-resistant strain panel). The format is cell-based, HIV-1. The conditions noted are these: triplicate, repeated twice, mean ± SD, read-out: IC50 (nM) against WT.
Text: as §2

The next test has as its system BJ412.W6M.ENV.S3. The class given is cell-based, HIV-1. The conditions noted are these: subtype C; triplicate, repeated twice, mean ± SD; read-out: IC50 (nM) against BJ412.W6M.ENV.S3. The text has this: (§3) Table 1 Inhibitory activities of CP, CP-IDL and T20 against HIV-1 pseudovirus. | column: IC50 (nM) of / CP; IC50 (nM) of / CP-IDL; IC50 (nM) of / T20
The subject of a further test is BG505.W6M.ENV.C2. The class given is cell-based, HIV-1. The conditions noted are these: subtype A; triplicate, repeated twice, mean ± SD; read-out: IC50 (nM) against BG505.W6M.ENV.C2.
Text: as §3

The subject of another test is SF162.LS. The format is cell-based, HIV-1. Particulars: subtype B, R5, Tier 1; triplicate, repeated twice, mean ± SD; read-out: IC50 (nM) against SF162.LS.
Text: as §3

The test system of a further test is CRF02_AG clone 33. The class given is cell-based, HIV-1. The conditions noted are these: subtype AG, R5, Tier 3; triplicate, repeated twice, mean ± SD; read-out: IC50 (nM) against CRF02_AG clone 33.
Text: as §3

The next test concerns ZM109F.PB4. The format is cell-based, HIV-1. Particulars: subtype C, R5; triplicate, repeated twice, mean ± SD; read-out: IC50 (nM) against ZM109F.PB4.
Text: as §3

For another test, the system named is CRF02_AG clone 278. The format is cell-based, HIV-1. Particulars: subtype AG, R5, Tier 3; triplicate, repeated twice, mean ± SD; read-out: IC50 (nM) against CRF02_AG clone 278.
Text: as §3

Another test relates to CRF02_AG/A1 clone 280. The format is cell-based, HIV-1. The conditions noted are these: subtype AG/A1, R5, Tier 2; triplicate, repeated twice, mean ± SD; read-out: IC50 (nM) against CRF02_AG/A1 clone 280.
Text: as §3

Another test has as its system CRF02_AG clone 242. The class given is cell-based, HIV-1. The conditions noted are these: subtype AG, R5, Tier 1; triplicate, repeated twice, mean ± SD; read-out: IC50 (nM) against CRF02_AG clone 242.
Text: as §3

The test system of a further test is pCH119 env. The format is cell-based, HIV-1. Particulars: subtype BC, R5, Tier 2; triplicate, repeated twice, mean ± SD; read-out: IC50 (nM) against pCH119 env.
Text: as §3

Another test has as its system MJ412.W0M.ENV.B1. The class given is cell-based, HIV-1. The conditions noted are these: subtype C; triplicate, repeated twice, mean ± SD; read-out: IC50 (nM) against MJ412.W0M.ENV.B1.
Text: as §3

In a further test the test system is B1206.W6P.ENV.A1. The format is cell-based, HIV-1. The conditions noted are these: subtype A; triplicate, repeated twice, mean ± SD; read-out: IC50 (nM) against B1206.W6P.ENV.A1.
Text: as §3

Ends that are not written are not given here. Some results are limits rather than exact numbers.

For the sequence WEEWDKKIEEYTKKIEELIKKSQNQQ [CP], the IC50 in test [1] (M7 cells, 100 TCID50 virus, peptide overnight, p24 ELISA on day 4 post-infection) is 0.281 µM; in [2] (M7 cells, 100 TCID50 virus, peptide overnight, p24 ELISA on day 4 post-infection, read-out: IC50, inhibition of HIV-1 92UG024 infection) it was 0.208 µM; in [3] it was > 500 nM; in test [4], > 500 nM; in [5] it was 297 ± 22 nM; in test [6] it was 462 ± 44 nM. Moreover, the IC50 is > 500 nM in test [7]; 181 ± 16 nM in [8]; 195 ± 12 nM in test [9]; 51.9 ± 12 nM in the test with BJ412.W6M.ENV.S3; 26.5 ± 8.6 nM with BG505.W6M.ENV.C2; 78.8 ± 11 nM in the test on SF162.LS. Further, the IC50 came to 111 ± 4.8 nM in the test on CRF02_AG clone 33; 63.4 ± 4.6 nM in the test with ZM109F.PB4; 44.4 ± 13 nM in the test with CRF02_AG clone 278; 213 ± 14 nM with CRF02_AG/A1 clone 280; 61.2 ± 13 nM in the test with CRF02_AG clone 242; 42.3 ± 2.9 nM with pCH119 env. The IC50 in the test on MJ412.W0M.ENV.B1 is 46 ± 3.2 nM; in the test with B1206.W6P.ENV.A1, > 2000 nM.

Consider WEEWDKKIEEYTKKIEELIKKSQNQQIDL [CP-IDL], for which the “Activity stronger than that of T20” value was 24 fold in test [1] (92TH009) and 12 fold in test [2] (92UG024, ratio of IC50 to T20). In addition, the “Increase of potency over CP” value was determined as 109 fold in test [1] (92TH009, ratio of IC50 to CP) and 55 fold in test [2] (92UG024, ratio of IC50 to CP). Moreover, the IC50 in [3] came out at 9.79 ± 2.9 nM; in test [4], 302 ± 34 nM; in test [5], 7.99 ± 3.5 nM; in test [6] it was 46.4 ± 16 nM; in [7], 382 ± 82 nM; in [8], 8.67 ± 1.6 nM. For the same sequence, the IC50 in test [9] stood at 10.8 ± 1.2 nM; in the test with BJ412.W6M.ENV.S3, 1.21 ± 0.1 nM; in the test with BG505.W6M.ENV.C2, 8.61 ± 2.8 nM; in the test on SF162.LS, 1.51 ± 0.4 nM; in the test with CRF02_AG clone 33, 2.82 ± 0.5 nM; in the test on ZM109F.PB4, 2.93 ± 1.2 nM. Also, the IC50 amounted to 8.59 ± 2.4 nM with CRF02_AG clone 278; 5.62 ± 1.2 nM with CRF02_AG/A1 clone 280; 6.24 ± 3.7 nM in the test on CRF02_AG clone 242; 5.79 ± 1.1 nM in the test with pCH119 env; 2.24 ± 1.3 nM in the test on MJ412.W0M.ENV.B1; 74.5 ± 12 nM in the test on B1206.W6P.ENV.A1.

Source of the values: article PMC5036048, “Rational improvement of gp41-targeting HIV-1 fusion inhibitors: an innovatively designed Ile-Asp-Leu tail with alternative conformations” (Scientific Reports, 2016).
